Read-outs that look alike come from different tables or passages of the source.
How the values were obtained:
[1] = Toxicity analysis (body weight, cTnI, ALT, AST) in tumor-bearing mice; type: in vivo
Procedure: Six to eight week old mice (n=5-7 for each group) were injected subcutaneously with TC-1 (2×10^5) or B16F10 (2×10^5) cells into the right flank. […] Some groups were intraperitoneally injected with 200 μg checkpoint inhibitors (anti-mPD-1, BioXcell, BE0146) for comparison or synergy evaluation. Tumor growth was subsequently measured twice a week using a digital caliper and calculated as 0.5×length×width×height by blinded investigators. Mouse weight was also recorded. Mice were sacrificed when the tumor volumes reached 1,500 mm^3.
Blood of different mouse groups were collected after 4 h. Then alanine transaminase activity assay (Abcam, ab105134), aspartate aminotransferase activity assay (Abcam, ab105135), and mouse cardiac troponin-I ELISA analysis (Life Diagnostics, Inc., Cat. No. CTNI-1-HS) were performed.

[2] = test system: TC-1 cells; test: Measurement of lactate and pH in the cell culture medium; type: cell-based; conditions: 1 μM (effective) AZD3965, 24 h, added directly (intact NPs), vs untreated control
Procedure: All animal procedures were performed with ethical compliance and approval by the Institutional Animal Care and Use Committee at the University of Texas Southwestern Medical Center. Cells were cultured in DMEM medium (10% fetal bovine serum, 100 U/mL penicillin G sodium and 100 μg/mL streptomycin (Pen/Strep), non-essential amino acids, and 20 μM β-mercaptoethanol (β-ME)) at 37° C. in 5% CO2 and the normal level of O2.
For lactate measurement, TC-1 cells were cultured in normal DMEM medium as described above with different drugs: free AZD3965 (1 uM), intact AZD-UPS NPs (1 uM effective AZD3965 concentration), or pretreatment of AZD-UPS NPs in pH 6.0 buffer for pH-activated drug release followed by addition into the cell culture medium. After 24 h incubation, lactate concentration was measured by NOVA BioProfile 4. For pH measurement, TC-1 cells were cultured in DMEM medium (D5030, Sigma) without NaHCO3, and in incubator without CO2 for 24 h, followed by measurement of medium pH.

[3] = test system: TC-1 tumor; test: Tumor growth and survival, TC-1 tumor model; type: in vivo; conditions: TC-1 model, day 27
Procedure: Six to eight week old mice (n=5-7 for each group) were injected subcutaneously with TC-1 (2×10^5) or B16F10 (2×10^5) cells into the right flank. Animals were treated by 50 mg/kg AZD3965 (administered twice daily by oral gavage for a total of 7 days), or by AZD-UPS NPs (containing 2 mg/kg AZD3965, IV injected at days 7, 10 and 13). Some groups were intraperitoneally injected with 200 μg checkpoint inhibitors (anti-mPD-1, BioXcell, BE0146) for comparison or synergy evaluation. Tumor growth was subsequently measured twice a week using a digital caliper and calculated as 0.5×length×width×height by blinded investigators. Mouse weight was also recorded. Mice were sacrificed when the tumor volumes reached 1,500 mm^3.

[4] = in vivo; type: in vivo, mice; conditions: for concentration at 24 h: tumor tissue 24 h after administration, read-out: tumor accumulation of AZD3965
Procedure: Mouse plasma were collected and added into 1 mL of methanol/water mixture (80/20, v/v) at 0.5, 6 and 24 h after treatment by different regimens. Tissues (heart, liver, kidney and tumor) were collected at 24 h. About 100 mg of tissues were removed, and the wet weight was recorded. The tissues were homogenized in 1 mL of methanol/water mixture (80/20, v/v). The plasma and tissue mixture were centrifuged and the supernatant was collected respectively, dried by a SpeedVac, then dissolved in methanol and measured by HPLC.

[5] = oral administration 50 mg/kg for 7 days, serum 4 h after last treatment, vs untreated

clearance from plasma ([4]; intravenous injection 2 mg/kg): rapid clearance of the drug | AUC ([4]; mouse, intravenous 2 mg/kg AZD3965, plasma, read-out: area under the concentration-time (AUC) value): 5.4 ± 2.5 µg·h/mL | concentration at 24 h ([4]; mouse, intravenous 2 mg/kg): 290 ± 120 ng/g | concentration at 24 h ([4]; mouse, oral administration 100 mg/kg (50-fold higher dose)): 4000 ± 3500 ng/g | peak drug plasma concentration ([4]; oral administration 100 mg/kg, at 30 min, TC-1 tumor-bearing mice): 47 ± 27 µg/mL
Compound: Cc1[nH]nc(C(F)(F)F)c1Cc1sc2c(c1C(=O)N1C[C@](C)(O)CO1)c(=O)n(C)c(=O)n2C(C)C [AZD3965]
level of alanine aminotransferase (ALT) [1, 5]: significantly increased | level of aspartate aminotransferase (AST) [1, 5]: significantly increased | level of cardiac troponin-I (cTnI) [1, 5]: significantly increased | body weight ([1]; oral administration, two weeks of treatment): did not cause weight loss | lactate secretion into culture medium [2]: significantly decreased the secretion of lactate | pH change of culture medium [2]: inhibited the lowering of pH in the medium | tumor volume ([3]; oral 50 mg/kg twice daily for 7 days, p=0.09 vs untreated): 9.2±4.1×10^2 mm^3 | tumor volume ([3]; oral AZD3965 in combination with anti-PD1): 8.0±3.1×10^2 mm^3

Source: patent US11786464B2, “PH responsive block copolymer compositions and micelles that inhibit MCT 1 and related proteins” (The Board of Regents of the University of Texas System, priority 2020, dated 2023)
